Legend:
cytochrome P450 enzymes = experiment: first pass metabolism / inactivation in the intestinal hepatic region; type: in vivo; details: inactivation by cytochrome P450 enzymes in the intestinal hepatic region
oral bioavailability = type: in vivo
[1] = target: T1, glucocorticosteroid receptors (Homo sapiens, UniProt P04150); experiment: affinity for and activity at glucocorticosteroid receptors; type: binding; details: compared to other very potent topical steroids
T1 sequence (P04150 1-777): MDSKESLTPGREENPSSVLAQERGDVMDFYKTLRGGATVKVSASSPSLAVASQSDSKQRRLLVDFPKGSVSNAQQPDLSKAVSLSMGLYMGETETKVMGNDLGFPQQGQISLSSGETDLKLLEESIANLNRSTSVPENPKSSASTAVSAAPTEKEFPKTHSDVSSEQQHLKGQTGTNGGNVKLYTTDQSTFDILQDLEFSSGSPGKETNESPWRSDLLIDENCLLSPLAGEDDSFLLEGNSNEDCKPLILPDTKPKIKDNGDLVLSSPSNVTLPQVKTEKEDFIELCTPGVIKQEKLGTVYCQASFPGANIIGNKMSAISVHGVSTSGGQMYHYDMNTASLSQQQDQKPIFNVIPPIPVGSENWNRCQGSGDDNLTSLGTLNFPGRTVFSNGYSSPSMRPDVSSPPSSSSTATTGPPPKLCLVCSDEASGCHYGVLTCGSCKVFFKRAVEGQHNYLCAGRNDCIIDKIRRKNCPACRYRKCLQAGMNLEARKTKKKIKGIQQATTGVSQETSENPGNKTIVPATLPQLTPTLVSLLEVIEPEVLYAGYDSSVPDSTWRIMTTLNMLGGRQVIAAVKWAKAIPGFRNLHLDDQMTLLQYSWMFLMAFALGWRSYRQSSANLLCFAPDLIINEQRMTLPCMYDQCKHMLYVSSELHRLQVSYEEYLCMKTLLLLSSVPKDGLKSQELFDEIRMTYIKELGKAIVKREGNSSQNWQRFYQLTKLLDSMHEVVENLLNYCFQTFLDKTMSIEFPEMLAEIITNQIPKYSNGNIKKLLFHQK

[2] = water solubility for dissolution distribution in intestinal fluids; type: physicochemical
[3] = treatment of irritable bowel syndrome (IBS); details: in vivo
Method: For testing the effect of rofleponide, its esters and salts in post-infectious irritable bowel syndrome the intestinal neuromuscular dysfunction after acute nematode infection in mice are measured in accordance with the method described in Gasteroenterology 1997, vol. 133, p.1224-1232.

CCC[C@@H]1O[C@@H]2C[C@H]3[C@@H]4C[C@H](F)C5=CC(=O)CC[C@]5(C)[C@@]4(F)[C@@H](O)C[C@]3(C)[C@]2(C(=O)CO)O1 [rofleponide, (22R)-16-alpha, 17 alpha-butylidenedioxy-6-alpha, 9alpha-difluoro-11beta,21-dihydroxypregn-4-ene-3,20-dione]
first pass metabolism (cytochrome P450 enzymes): at least 99% | oral bioavailability (oral bioavailability): ≤ 1% | affinity for and activity at glucocorticosteroid receptors [1]: very high | water solubility [2]: sufficient | effect in the treatment of irritable bowel syndrome (IBS) [3]: effective

Source: patent US20030004214A1, “Use of rofleponide in the treatment of irritable bowel syndrome (ibs)” (priority 2000, published 2003)
